Assays:
Assay in all cases: Test D controlled growth environment herbicide test, pre- and postemergence
Type in all cases: in vivo
[1] = tested on: field violet (Viola arvensis)
In short: (§1)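 Species sown in silt loam and sprayed preemergence, or grown in peat-based medium to 2–18 cm (1- to 4-leaf stage) and sprayed postemergence, with compounds in non-phytotoxic solvent plus surfactant. Visual injury scored versus controls after 14–21 d in a controlled environment, 0 (no effect) to 100 (complete control).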

[2] = tested on: radish, wild (wild radish, Raphanus raphanistrum)
In short: as §1

[3] = tested on: oilseed rape (Brassica napus)
In short: as §1

[4] = tested on: bluegrass (annual bluegrass, Poa annua)
In short: as §1

[5] = tested on: mustard, wild (wild mustard, Sinapis arvensis)
In short: as §1

[6] = tested on: Russian thistle (Salsola kali)
In short: as §1

[7] = tested on: bromegrass, downy (downy bromegrass, Bromus tectorum)
In short: as §1

[8] = tested on: field poppy (Papaver rhoeas)
In short: as §1

[9] = tested on: canarygrass (Phalaris minor)
In short: as §1

[10] = tested on: buckwheat, wild (wild buckwheat, Polygonum convolvulus)
In short: as §1

[11] = tested on: chamomile (scentless chamomile, Matricaria inodora)
In short: as §1

[12] = tested on: wheat, spring (spring wheat, Triticum aestivum)
In short: as §1

[13] = tested on: oat, wild (wild oat, Avena fatua)
In short: as §1

[14] = Postemergence, 31 g ai/ha, scale 0 to 100 (0 no effect, 100 complete control)
[15] = Postemergence, 125 g ai/ha, visual rating on scale 0 (no effect) to 100 (complete control), 14 to 21 d
[16] = Postemergence, 250 g ai/ha, scale 0 to 100 (0 no effect, 100 complete control)
[17] = Preemergence, 62 g ai/ha, scale 0 to 100 (0 no effect, 100 complete control)
[18] = Preemergence, 125 g ai/ha, scale 0 to 100 (0 no effect, 100 complete control)
[19] = Preemergence, 250 g ai/ha, scale 0 to 100 (0 no effect, 100 complete control)
[20] = postemergence, 62 g ai/ha, scale 0 to 100, 0 no effect, 100 complete control

For `CCC(=O)Oc1c(C)nn(C)c(=O)c1-c1c(C)sc2ccc(C)cc12` [Compound 42], the “Field Violet plant response rating” value [1, 14] was 70, the “Plant response rating, Field Violet” value [1, 15] was 90 and the “Plant response rating, Field Violet” value [1, 16] was 90. For the same compound, the “Plant response rating (scale of 0 to 100), Field Violet” value ([1]; Preemergence, 31 g ai/ha) was 85, the “Plant response rating, Field Violet” value [1, 17] was 95 and the “Plant response rating, Field Violet” value [1, 18] was 100. For the same compound, the “Plant response rating, Field Violet” value [1, 19] was 100, the “Plant response rating, Field Violet” value [1, 20] was 80 and the “Radish, Wild plant response rating” value [2, 14] was 5. The “Plant response rating, Radish, Wild” value [2, 15] was 20, the “Plant response rating, Radish, Wild” value [2, 16] was 65 and the “Plant response rating (scale of 0 to 100), Radish, Wild” value ([2]; Preemergence, 31 g ai/ha) was 0. For the same compound, the “Plant response rating, Radish, Wild” value [2, 18] was 15, the “Plant response rating, Radish, Wild” value [2, 19] was 60 and the “Plant response rating, Radish, Wild” value [2, 20] was 10. The “Oilseed Rape plant response rating” value [3, 14] was 10, the “Plant response rating, Oilseed Rape” value [3, 15] was 60 and the “Plant response rating, Oilseed Rape” value [3, 16] was 70. The “Plant response rating (scale of 0 to 100), Oilseed Rape” value ([3]; Preemergence, 31 g ai/ha) was 0, the “Plant response rating, Oilseed Rape” value [3, 17] was 0 and the “Plant response rating, Oilseed Rape” value [3, 18] was 0. The “Plant response rating, Oilseed Rape” value [3, 19] was 0, the “Plant response rating, Oilseed Rape” value [3, 20] was 50 and the “Bluegrass plant response rating” value [4, 14] was 15. The “Plant response rating, Bluegrass” value [4, 15] was 20, the “Plant response rating, Bluegrass” value [4, 16] was 35 and the “Plant response rating (scale of 0 to 100), Bluegrass” value ([4]; Preemergence, 31 g ai/ha) was 35. For the same compound, the “Plant response rating, Bluegrass” value [4, 17] was 45, the “Plant response rating, Bluegrass” value [4, 18] was 65 and the “Bluegrass plant response rating” value [4, 19] was 80. For the same compound, the “Plant response rating, Bluegrass” value [4, 20] was 20, the “Mustard, Wild plant response rating” value [5, 14] was 25 and the “Plant response rating, Mustard, Wild” value [5, 15] was 70. For the same compound, the “Plant response rating, Mustard, Wild” value [5, 16] was 80, the “Plant response rating (scale of 0 to 100), Mustard, Wild” value ([5]; Preemergence, 31 g ai/ha) was 15 and the “Plant response rating, Mustard, Wild” value [5, 17] was 15. For the same compound, the “Plant response rating, Mustard, Wild” value [5, 18] was 20, the “Plant response rating, Mustard, Wild” value [5, 19] was 25 and the “Plant response rating, Mustard, Wild” value [5, 20] was 70. The “Russian Thistle plant response rating” value [6, 14] was 70, the “Plant response rating, Russian Thistle” value [6, 15] was 85 and the “Plant response rating, Russian Thistle” value [6, 16] was 90. The “Plant response rating (scale of 0 to 100), Russian Thistle” value ([6]; Preemergence, 31 g ai/ha) was 10, the “Plant response rating, Russian Thistle” value [6, 17] was 15 and the “Plant response rating, Russian Thistle” value [6, 18] was 65. For the same compound, the “Plant response rating, Russian Thistle” value [6, 19] was 75, the “Plant response rating, Russian Thistle” value [6, 20] was 75 and the “Bromegrass, Downy plant response rating” value [7, 14] was 0. The “Plant response rating, Bromegrass, Downy” value [7, 15] was 40, the “Plant response rating, Bromegrass, Downy” value [7, 16] was 70 and the “Plant response rating (scale of 0 to 100), Bromegrass, Downy” value ([7]; Preemergence, 31 g ai/ha) was 45. The “Plant response rating, Bromegrass, Downy” value [7, 17] was 55, the “Plant response rating, Bromegrass, Downy” value [7, 18] was 70 and the “Plant response rating, Bromegrass, Downy” value [7, 19] was 90. For the same compound, the “Plant response rating, Bromegrass, Downy” value [7, 20] was 20, the “Field Poppy plant response rating” value [8, 14] was 65 and the “Plant response rating, Field Poppy” value [8, 15] was 100. The “Plant response rating, Field Poppy” value [8, 16] was 100, the “Plant response rating (scale of 0 to 100), Field Poppy” value ([8]; Preemergence, 31 g ai/ha) was 100 and the “Plant response rating, Field Poppy” value [8, 17] was 100. For the same compound, the “Plant response rating, Field Poppy” value [8, 18] was 100, the “Plant response rating, Field Poppy” value [8, 19] was 100 and the “Plant response rating, Field Poppy” value [8, 20] was 85. For the same compound, the “Canarygrass plant response rating” value [9, 14] was 50, the “Plant response rating, Canarygrass” value [9, 15] was 80 and the “Plant response rating, Canarygrass” value [9, 16] was 80. For the same compound, the “Plant response rating (scale of 0 to 100), Canarygrass” value ([9]; Preemergence, 31 g ai/ha) was 90, the “Plant response rating, Canarygrass” value [9, 17] was 95 and the “Plant response rating, Canarygrass” value [9, 18] was 100. For the same compound, the “Plant response rating, Canarygrass” value [9, 19] was 100, the “Plant response rating, Canarygrass” value [9, 20] was 75 and the “Buckwheat, Wild plant response rating” value [10, 14] was 80. The “Plant response rating, Buckwheat, Wild” value [10, 15] was 100, the “Plant response rating, Buckwheat, Wild” value [10, 16] was 100 and the “Plant response rating (scale of 0 to 100), Buckwheat, Wild” value ([10]; Preemergence, 31 g ai/ha) was 20. The “Plant response rating, Buckwheat, Wild” value [10, 17] was 25, the “Plant response rating, Buckwheat, Wild” value [10, 18] was 80 and the “Plant response rating, Buckwheat, Wild” value [10, 19] was 60. For the same compound, the “Plant response rating, Buckwheat, Wild” value [10, 20] was 95, the “Chamomile plant response rating” value [11, 14] was 75 and the “Plant response rating, Chamomile” value [11, 15] was 100. For the same compound, the “Plant response rating, Chamomile” value [11, 16] was 100, the “Plant response rating (scale of 0 to 100), Chamomile” value ([11]; Preemergence, 31 g ai/ha) was 95 and the “Plant response rating, Chamomile” value [11, 17] was 100. For the same compound, the “Plant response rating, Chamomile” value [11, 18] was 100, the “Plant response rating, Chamomile” value [11, 19] was 100 and the “Plant response rating, Chamomile” value [11, 20] was 70. For the same compound, the “Wheat, Spring plant response rating” value [12, 14] was 0, the “Plant response rating, Wheat, Spring” value [12, 15] was 15 and the “Plant response rating, Wheat, Spring” value [12, 16] was 20. For the same compound, the “Plant response rating (scale of 0 to 100), Wheat, Spring” value ([12]; Preemergence, 31 g ai/ha) was 0, the “Plant response rating, Wheat, Spring” value [12, 17] was 0 and the “Plant response rating, Wheat, Spring” value [12, 18] was 0. For the same compound, the “Plant response rating, Wheat, Spring” value [12, 19] was 20, the “Plant response rating, Wheat, Spring” value [12, 20] was 10 and the “Oat, Wild plant response rating” value [13, 14] was 75. For the same compound, the “Plant response rating, Oat, Wild” value [13, 15] was 85, the “Plant response rating, Oat, Wild” value [13, 16] was 95 and the “Plant response rating (scale of 0 to 100), Oat, Wild” value ([13]; Preemergence, 31 g ai/ha) was 90. For the same compound, the “Plant response rating, Oat, Wild” value [13, 17] was 90, the “Plant response rating, Oat, Wild” value [13, 18] was 95 and the “Plant response rating, Oat, Wild” value [13, 19] was 95. For the same compound, the “Plant response rating, Oat, Wild” value [13, 20] was 85.

Source: patent US10597388B2, “Pyridazinone herbicides” (FMC CORPORATION, priority 2014, dated 2020)
